From patent US20240285688A1, “Extensive whey protein hydrolysate with tolerogenic peptides” (N.V. Nutricia, priority 2019, published 2024)
Peptide text beside a SMILES is read from it.

Assay: Presence of tolerogenic betalactoglobulin peptides in feed, retentate and permeate of membrane ultrafiltration (micro LC-MS ESI MS2)
Format: physicochemical
Details: Example 3: urea (8 M) added after hydrolysis and before ultrafiltration
Procedure: In a Multifors reactor (Infors HT) 500 gram of whey protein powder (WPC83, Arla Foods, with about 80% whey protein) was dissolved in water at a final concentration of about 4 wt % at a temperature of about 75° C., giving a protein concentration of about 3.2 wt %. After dissolving the mixture was cooled to 58° C. and the pH was adjusted to neutral (pH 7-8). Proteolytic enzymes were added (Trypsin, Neova Technologies Inc) to a concentration of 33 mg/100 g solution and hydrolysis took place for about 105 min under continuous stirring. During hydrolysis the pH was kept constant. After hydrolysis the mixture was quickly cooled to 4° C.
Next the mixture of whey protein hydrolysate and proteolytic enzymes was filtrated. 200 ml of the mixture (the feed) was filtrated for 20 minutes on a MMS Triple System membrane filtration unit (MMS AG Membrane Systems) provided with an ultrafiltration membrane from Koch (Koch: HFK-131, a flat sheet polyethersulfone ultrafiltration membrane with a molecular weight cut off of 10 kDa) under a pressure of 8 bars. A one-layer filtration setup was used and the retentate was circulated during filtration. Each membrane was used only once to promote reproducibility. The filtration cooling system was set to 15° C. The permeate was weighted, MMS filtration software was used for the registering of the permeate throughput. Samples were taken of the mixture before membrane filtration (the feed), and of the permeate and retentate after the membrane filtration step. About 93% of permeate (wt % of total feed) was produced comprising about 85 wt % of peptides (wt % of the peptides in the feed). Samples were stored at −50° C. for further analysis.
The presence of tolerogenic betalactoglobulin peptides in the samples was analyzed according to Gouw et al., 2018, Clin. Exp. Allergy 48:[…], with the modification that instead of nanoLC-ESI MS2, micro LC-MS ESI MS2 was used. The presence of 5 specific peptides was tested (region overlapping with the 13-48 AA acid region of betalactoglobulin in bold):
The process of example 1 was repeated. The only difference was that Citrem (Grinsted® Citrem, DuPont) was added at an amount of about 3.6 gram before the pH adjustment and the addition of the proteolytic enzymes. […]
The process of example 2a was repeated, the only difference being that instead of the emulsifier, 51 gram of urea (source Merck) was dissolved per 100 g water (8 M) and added after the hydrolysis step and before ultrafiltration. […] All peptides were detected in the retentate and feed, and peptides 1, 3, 4 and 5 of example 1 (i.e. SEQ ID NOs 66, 68, 69 and 70 with X=L) were detected in the permeate, in an amount of about 1-10 wt. % of the concentration of these peptides in the feed. […]

presence of the tolerogenic peptides in the permeate	SMILES
detected	CC[C@H](C)[C@H](NC(=O)[C@H](CC(=O)O)NC(=O)[C@H](CC(C)C)NC(=O)CNC(=O)[C@H](CCCCN)NC(=O)[C@H](CCSC)NC(=O)[C@@H](NC(=O)[C@H](CCC(N)=O)NC(=O)[C@@H](NC(=O)[C@@H](NC(=O)[C@@H](NC(=O)[C@@H](N)CC(C)C)[C@@H](C)CC)C(C)C)[C@@H](C)O)[C@@H](C)O)C(=O)N[C@@H](CCC(N)=O)C(=O)N[C@@H](CCCCN)C(=O)N[C@H](C(=O)N[C@@H](C)C(=O)NCC(=O)N[C@H](C(=O)N[C@@H](Cc1c[nH]c2ccccc12)C(=O)N[C@@H](Cc1ccc(O)cc1)C(=O)N[C@@H](CO)C(=O)N[C@@H](CC(C)C)C(=O)N[C@@H](C)C(=O)N[C@@H](CCSC)C(=O)N[C@@H](C)C(=O)N[C@@H](C)C(=O)N[C@@H](CO)C(=O)O)[C@@H](C)O)C(C)C [Peptide 1] (H-LIVTQTMKGLDIQKVAGTWYSLAMAAS-OH; N-terminus and C-terminus assumed)
detected	CC[C@H](C)[C@H](NC(=O)[C@H](CC(=O)O)NC(=O)[C@H](CC(C)C)NC(=O)CNC(=O)[C@H](CCCCN)NC(=O)[C@H](CCSC)NC(=O)[C@@H](N)[C@@H](C)O)C(=O)N[C@@H](CCC(N)=O)C(=O)N[C@@H](CCCCN)C(=O)N[C@H](C(=O)N[C@@H](C)C(=O)NCC(=O)N[C@H](C(=O)N[C@@H](Cc1c[nH]c2ccccc12)C(=O)N[C@@H](Cc1ccc(O)cc1)C(=O)N[C@@H](CO)C(=O)N[C@@H](CC(C)C)C(=O)N[C@@H](C)C(=O)N[C@@H](CCSC)C(=O)N[C@@H](C)C(=O)N[C@@H](C)C(=O)N[C@@H](CO)C(=O)N[C@@H](CC(=O)O)C(=O)N[C@H](C(=O)N[C@@H](CO)C(=O)N[C@@H](CC(C)C)C(=O)N[C@@H](CC(C)C)C(=O)N[C@@H](CC(=O)O)C(=O)N[C@@H](C)C(=O)N[C@@H](CCC(N)=O)C(=O)O)[C@@H](C)CC)[C@@H](C)O)C(C)C [Peptide 3] (H-TMKGLDIQKVAGTWYSLAMAASDISLLDAQ-OH; N-terminus and C-terminus assumed)
detected	CC[C@H](C)[C@H](NC(=O)[C@H](CC(=O)O)NC(=O)[C@H](CC(C)C)NC(=O)CNC(=O)[C@H](CCCCN)NC(=O)[C@H](CCSC)NC(=O)[C@@H](N)[C@@H](C)O)C(=O)N[C@@H](CCC(N)=O)C(=O)N[C@@H](CCCCN)C(=O)N[C@H](C(=O)N[C@@H](C)C(=O)NCC(=O)N[C@H](C(=O)N[C@@H](Cc1c[nH]c2ccccc12)C(=O)N[C@@H](Cc1ccc(O)cc1)C(=O)N[C@@H](CO)C(=O)N[C@@H](CC(C)C)C(=O)N[C@@H](C)C(=O)N[C@@H](CCSC)C(=O)N[C@@H](C)C(=O)N[C@@H](C)C(=O)N[C@@H](CO)C(=O)N[C@@H](CC(=O)O)C(=O)N[C@H](C(=O)N[C@@H](CO)C(=O)N[C@@H](CC(C)C)C(=O)N[C@@H](CC(C)C)C(=O)O)[C@@H](C)CC)[C@@H](C)O)C(C)C [Peptide 4] (H-TMKGLDIQKVAGTWYSLAMAASDISLL-OH; N-terminus and C-terminus assumed)
detected	CC[C@H](C)[C@H](NC(=O)[C@H](CC(=O)O)NC(=O)[C@H](CC(C)C)NC(=O)CNC(=O)[C@H](CCCCN)NC(=O)[C@H](CCSC)NC(=O)[C@@H](NC(=O)[C@H](CCC(N)=O)NC(=O)[C@@H](NC(=O)[C@@H](NC(=O)[C@@H](NC(=O)[C@@H](N)CC(C)C)[C@@H](C)CC)C(C)C)[C@@H](C)O)[C@@H](C)O)C(=O)N[C@@H](CCC(N)=O)C(=O)N[C@@H](CCCCN)C(=O)N[C@H](C(=O)N[C@@H](C)C(=O)NCC(=O)N[C@H](C(=O)N[C@@H](Cc1c[nH]c2ccccc12)C(=O)N[C@@H](Cc1ccc(O)cc1)C(=O)N[C@@H](CO)C(=O)N[C@@H](CC(C)C)C(=O)N[C@@H](C)C(=O)N[C@@H](CCSC)C(=O)N[C@@H](C)C(=O)N[C@@H](C)C(=O)N[C@@H](CO)C(=O)N[C@@H](CC(=O)O)C(=O)N[C@H](C(=O)N[C@@H](CO)C(=O)N[C@@H](CC(C)C)C(=O)N[C@@H](CC(C)C)C(=O)O)[C@@H](C)CC)[C@@H](C)O)C(C)C [Peptide 5] (H-LIVTQTMKGLDIQKVAGTWYSLAMAASDISLL-OH; N-terminus and C-terminus assumed)
